Test results: patent US20220288045A1, “Stable Pharmaceutical Composition Comprising Esomeprazole And Sodium Bicarbonate” (Chong Kun Dang Pharmaceutical Corp., priority 2019, published 2022)
Like-named read-outs stand apart in the source and are kept apart here.

Tests used:
[1] = Stability test of esomeprazole and omeprazole according to pH (HPLC content in buffer solution); type: physicochemical; settings: in % (unit assumed)
Description: After adding each 2 mL of 20 mg/mL strength of esomeprazole and omeprazole solutions to 100 mL of buffer solution, the content according to pH was analyzed, and the analysis method is as follows. <Analysis Method> A) Detector: Ultraviolet visible light absorption spectrometer (measurement wavelength: 280 nm) B) Column: Inertsil C8-3 (4.6×150 mm, 5 μm) or equivalent column C) Injection amount: 20 μl D) Flow rate: 1.5 mL/min E) Column temperature: constant temperature around 40° C. F) Sample temperature: constant temperature around 10° C.

[2] = aqueous solutions with 3 or less of a pH value; cited from earlier work
[3] = for pH: 200 mL artificial gastric juice + 200 mL purified water, 37° C.
Text: To set the content of sodium bicarbonate, the drug release conditions and gastric juice conditions were set as follows.

COc1ccc2nc([S@@+]([O-])Cc3ncc(C)c(OC)c3C)[nH]c2c1 [S-omeprazole, (S)-5-methoxy-24(4-methoxy-3,5-dimethyl-2-pyridinyl)-methyllsulfinyl-1H-benzimidazole]
content according to pH ([1]; pH4.0, 5 min): 64.1
content according to pH ([1]; pH4.0, 10 min): 31.0
content according to pH ([1]; pH4.0, 15 min): 15.9
content according to pH ([1]; pH4.0, 30 min): 6.9
content according to pH ([1]; pH4.0, 45 min): 1.7
content according to pH ([1]; pH4.0, 60 min): 0.9
content according to pH ([1]; pH4.0, 120 min): 0.1
content according to pH ([1]; pH6.0, 5 min): 74.4
content according to pH ([1]; pH6.0, 10 min): 72.8
content according to pH ([1]; pH6.0, 15 min): 71.0
content according to pH ([1]; pH6.0, 30 min): 68.9
content according to pH ([1]; pH6.0, 45 min): 66.3
content according to pH ([1]; pH6.0, 60 min): 63.6
content according to pH ([1]; pH6.0, 120 min): 54.9
content according to pH ([1]; pH6.8, 5 min): 95.6
content according to pH ([1]; pH6.8, 10 min): 90.8
content according to pH ([1]; pH6.8, 15 min): 90.5
content according to pH ([1]; pH6.8, 30 min): 89.7
content according to pH ([1]; pH6.8, 45 min): 88.9
content according to pH ([1]; pH6.8, 60 min): 88.3
content according to pH ([1]; pH6.8, 120 min): 86.2
content according to pH ([1]; pH7.0, 5 min): 99.6
content according to pH ([1]; pH7.0, 10 min): 99.0
content according to pH ([1]; pH7.0, 15 min): 99.3
content according to pH ([1]; pH7.0, 30 min): 98.9
content according to pH ([1]; pH7.0, 45 min): 98.7
content according to pH ([1]; pH7.0, 60 min): 98.1
content according to pH ([1]; pH7.0, 120 min): 96.8
content according to pH ([1]; pH7.3, 5 min): 100.1
content according to pH ([1]; pH7.3, 10 min): 100.1
content according to pH ([1]; pH7.3, 15 min): 100.0
content according to pH ([1]; pH7.3, 30 min): 100.0
content according to pH ([1]; pH7.3, 45 min): 100.0
content according to pH ([1]; pH7.3, 60 min): 100.0
content according to pH ([1]; pH7.3, 120 min): 99.90
content according to pH ([1]; pH7.5, 5 min): 99.4
content according to pH ([1]; pH7.5, 10 min): 99.3
content according to pH ([1]; pH7.5, 15 min): 99.2
content according to pH ([1]; pH7.5, 30 min): 99.1
content according to pH ([1]; pH7.5, 45 min): 99.3
content according to pH ([1]; pH7.5, 60 min): 99.1
content according to pH ([1]; pH7.5, 120 min): 98.2
content according to pH ([1]; pH8.0, 15 min): 101.1
content according to pH ([1]; pH8.0, 30 min): 100.9
content according to pH ([1]; pH8.0, 45 min): 100.7
content according to pH ([1]; pH8.0, 60 min): 100.7
content according to pH ([1]; pH8.0, 120 min): 100.0
decomposition half-life [2]: less than 10 minutes

O=C([O-])O.[Na+] [Sodium bicarbonate]
amount of sodium bicarbonate that can represent neutral pH by neutralizing 200 mL of artificial gastric juice ([3]; 200 mL artificial gastric juice): at least 600 mg
pH ([3]; Sodium bicarbonate 500 mg): 5.77
pH ([3]; Sodium bicarbonate 600 mg): 6.51
pH ([3]; Sodium bicarbonate 700 mg): 7.30
pH ([3]; Sodium bicarbonate 800 mg): 7.30
pH ([3]; Sodium bicarbonate 900 mg): 7.31
pH ([3]; Sodium bicarbonate 1,000 mg): 7.37
pH ([3]; Sodium bicarbonate 1,100 mg): 7.38
pH ([3]; Sodium bicarbonate 1,200 mg): 7.38
pH ([3]; Sodium bicarbonate 1,300 mg): 7.40
